US5208227A, “Method, compositions, and compounds for modulating brain excitability” (priority 1991, dated 1993)

How the values were obtained:
[1] = system: (+)bicuculline-induced seizures in mice; assay: animal or person; format: in vivo
Procedure: (§1) Experiments were also performed to determine the physiological relevance of these interactions by measuring the ability of the compounds of and used in the invention to modulate TBPS-induced convulsions in Swiss-Webster mice. […] The time to onset of myoclonus (presence of forelimb clonic activity) induced by TBPS was determined by observing each mouse for a period of 45 minutes. Significant differences between the time to onset in control mice vs. steroid-treated mice were determined by Student's t-test. […] The number of animals with tonic and/or clonic convulsions was recorded. In the maximal electroshock test, 50 mA of current at 60 Hz was delivered through corneal electrodes for 200 msec. […] The ED50 (the dose at which the half-maximal effect occurs) dose was determined for each screen.

[2] = system: mice; assay: acute LD50; conditions: mice
[3] = acute LD50; conditions: mouse, in vivo
[4] = system: GBR complex ([35S]TBPS site); assay: dissociation kinetics of [35S]TBPS in cortical P2 homogenates; format: binding, rat; conditions: for effect on dissociation mechanism/kinetics of [35S]TBPS (in words): pentobarbital 30 micromolar, alphaxalone 300 nanomolar, 5-alpha-pregnan-3-alpha-hydroxy-20-one 20 nanomolar
Procedure: An assay was performed to determine the effect of pentobarbital on the dissociation kinetics of [^35 S]TBPS in rat cerebral cortical membranes. This assay was performed in accordance with the procedures outlined above. […] Dissociation of bound [^35 S]TBPS was initiated by 2 micromolar TBPS in all cases.

[5] = system: mice; assay: rotorod test (sedative potential)
[6] = biological target: T1, progesterone receptor (Rattus norvegicus, UniProt Q63449); assay: [3H]R5020 binding to the progesterone receptor in rat uterus; conditions: FIG. 5
T1 sequence (Q63449 1-923): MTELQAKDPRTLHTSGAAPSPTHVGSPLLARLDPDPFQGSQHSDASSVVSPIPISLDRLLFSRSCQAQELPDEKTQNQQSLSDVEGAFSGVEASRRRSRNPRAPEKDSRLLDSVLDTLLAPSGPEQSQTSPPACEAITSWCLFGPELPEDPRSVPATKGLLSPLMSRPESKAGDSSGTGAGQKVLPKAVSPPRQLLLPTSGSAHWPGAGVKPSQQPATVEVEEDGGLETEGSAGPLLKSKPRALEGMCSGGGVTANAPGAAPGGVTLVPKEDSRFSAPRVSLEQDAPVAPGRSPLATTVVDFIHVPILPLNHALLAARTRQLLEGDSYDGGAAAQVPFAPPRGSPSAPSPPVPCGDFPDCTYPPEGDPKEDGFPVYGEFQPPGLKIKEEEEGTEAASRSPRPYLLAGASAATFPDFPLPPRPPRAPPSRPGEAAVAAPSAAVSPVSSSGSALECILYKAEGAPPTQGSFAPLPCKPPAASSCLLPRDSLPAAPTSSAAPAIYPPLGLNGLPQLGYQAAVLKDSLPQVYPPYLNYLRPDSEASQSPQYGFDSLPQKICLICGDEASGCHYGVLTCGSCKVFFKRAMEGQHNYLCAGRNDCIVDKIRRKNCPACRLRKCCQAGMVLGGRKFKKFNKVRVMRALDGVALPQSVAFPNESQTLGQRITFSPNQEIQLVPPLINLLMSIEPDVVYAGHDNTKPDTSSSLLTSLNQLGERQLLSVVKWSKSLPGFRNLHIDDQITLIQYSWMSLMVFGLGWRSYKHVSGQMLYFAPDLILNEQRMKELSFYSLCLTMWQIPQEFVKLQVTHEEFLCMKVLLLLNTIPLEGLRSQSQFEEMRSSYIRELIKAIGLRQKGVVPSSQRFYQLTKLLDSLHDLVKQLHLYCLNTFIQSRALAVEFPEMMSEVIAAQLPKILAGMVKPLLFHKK
From the text: The data plotted in FIG. 5 were obtained by performing assays in accordance with the procedures outlined above to determine the effect of progesterone metabolites and the progestin R5020 on the binding of [^3 H]R5020 to the progesterone receptor in rat uterus. All points on the plot of FIG. 5 represent the mean of triplicate determinations. The following compounds are those listed in FIG. 5: 5-alpha-pregnan-3-alpha-ol-20-one (DHP), 5-alpha-pregnan-3-alpha,21-diol-20-one (Th-DOC), and 5-beta-pregnane-3-alpha,20 diol (5 BETA).

[7] = system: metrazol-induced convulsions in mice; assay: metrazol-induced convulsions; format: in vivo; conditions: Mus musculus, metrazol 85 mg/kg, 95% confidence limits, read-out: MTZ (metrazol) ED50
Procedure: as §1

[8] = system: strychnine-induced convulsions in mice; assay: strychnine-induced convulsions; format: in vivo; conditions: Mus musculus, read-out: STR (strychnine) ED50
Procedure: as §1

[9] = system: picrotoxin-induced convulsions in mice; assay: picrotoxin-induced convulsions; format: in vivo; conditions: Mus musculus, read-out: PICRO (picrotoxin) ED50
Procedure: as §1

[10] = system: BZ receptor; assay: modulation of [3H] flunitrazepam binding; set-up: species or system rat; conditions: pentobarbital 1.0 millimolar; 0.25 nM [3H]FLU; absence of GABA

In the case of `CC(=O)[C@H]1CC[C@H]2[C@@H]3CC[C@H]4C[C@H](O)CC[C@]4(C)[C@H]3CC[C@]12C` [3α-hydroxy-5α-pregnan-20-one], the ED50 ([1]; Mus musculus, (+)bicuculline 2.7 mg/kg, 95% confidence limits, read-out: BIC (bicuculline) ED50) is reported as 4.1 ± 1.7 mg/kg, the “anticonvulsant effectiveness (in words)” value ([1]; compared with clinically useful anticonvulsants, Table 3) is reported as “highly effective with a profile similar to that of the benzodiazepine clonazepam” and the “toxicity (in words)” value [2] is reported as “very low toxicity”. For the same compound, the LD50 [3] was over 500 mg/kg, the “Total percentage of specific sites, rapidly dissociating (R)” value ([4]; (**P < 0.01 vs control), alphaxalone 300 nM, 3a-OH-DHP 20 nM) was 35 ± 3 percentage and the “Total percentage of specific sites, slowly dissociating (S)” value ([4]; (*P < 0.05 vs control), alphaxalone 300 nM, 3a-OH-DHP 20 nM) was 68 ± 3 percentage. For the same compound, the “k-1, slowly dissociating component (S)” value ([4]; [35S]TBPS dissociation, pentobarbital 30 nM [sic], alphaxalone 300 nM, 3a-OH-DHP 20 nM) was 0.011 min⁻¹, the “effect on dissociation mechanism/kinetics of [35S]TBPS (in words)” value [4] was “absent” and the “effect on dissociation mechanism/kinetics of [35S]TBPS (in words)” value ([4]; listed as 5-alpha-pregnan-3-alpha-ol-20-one) was “do not influence the dissociation kinetics”. For the same compound, the “sedative liability at anticonvulsant doses” value ([5]; ED50 rotorod versus (+)bicuculline-induced seizures) was “low”, the “Rotorod (RR) ED50” value ([5]; mice, 10 minutes after injection, 6 rpm rod) was 40-100 and the “affinity for the progesterone receptor” value [6] was “lack of affinity”. The ED50 [7] was 18.8 ± 1.1 mg/kg, the ED50 [8] was over 300 mg/kg and the ED50 [9] was 31.7 ± 1.1 mg/kg. For the same compound, the “interaction with pentobarbital in enhancement of [3H] flunitrazepam binding” value [10] was “does not interact with pentobarbital”.
